According to patent US20250198977A1, “DETECTION METHOD, DRIED ALGAE MANUFACTURING METHOD, DRIED ALGAE, AND DRIED ALGAE QUALITY MANAGEMENT METHOD” (priority 2022, published 2025):

Assays:
[1] = system: L-dried matter of Cyanobium sp. NIES-981; assay: Detection of chemical substances by delayed luminescence (DFI) of rehydrated L-dried matter; type: cell-based
Procedure: (§1) Various kinds of the L-dried matter obtained in the above-described cryo vial, and test water (water containing the chemical substances listed below at the concentrations (w/v) shown in Table 7) were prepared.
(§2) (metal mixed solution which was prepared by simulation based on formulation of a rock eluate from a core sample collected during a survey voyage of “Chikyu” by the Japan Agency for Marine-Earth Science and Technology; mainly containing lead and zinc (Yamagishi et al. Ecotoxicology (2018) 27:1303-1309)) • Copper • Zinc • Lead • Arsenic: in NIES-35, NIES-969, and NIES-2885, test water containing As(V) at 1 ppm (w/v) was also used for examination.
(§3) In a case of tests using freshwater algae, distilled water was used as the test water or control water, and in a case of tests using marine algae, filtered and sterilized seawater was used as the test water or control water.
(§4) Using a cuvette as a measurement container, 100 μL of the above-described cell suspension was dried to obtain 1 unit of the L-dried matter, and resuspended (rehydrated) in 3.5 mL of test water or control water.
(§5) After the rehydration, the L-dried matter and the test water or control water were rapidly and thoroughly mixed by pipetting to obtain a measurement sample (measurement object).
(§6) The sample was set in a weak luminescence measurement device (manufactured by Hamamatsu Photonics K.K., weak luminescence coefficient device, Type-7100). After exposure with excitation light from a light source attached to the device, delayed luminescence was measured immediately after a point of time of the rehydration (within 30 seconds), 15 minutes later, 30 minutes later, 60 minutes later, and 90 minutes later. The measurement time for each delayed luminescence was set to 10 seconds.
(§7) The sum of amounts of delayed luminescence (photon count) measured over 10 seconds was calculated and defined as the delayed fluorescence integral (DFI). In addition, for the sample after the rehydration, an absorbance at a wavelength of 600 nm with an optical path length of 1 cm was simultaneously measured. The DFI value per cell number of the L-dried matter was obtained by dividing the DFI by the value (DFI/OD600).

[2] = system: L-dried matter of Synechococcus sp. NIES-969; assay: as above; type: cell-based
Procedure: as §1, §2, §3, §4, §5, §6, §7

[3] = system: L-dried matter of Raphidocelis subcapitata NIES-35; assay: as above; type: cell-based
Procedure: as §1, §2, §3, §4, §5, §6, §7

[4] = system: L-dried matter of Prochlorococcus sp. NIES-2885; assay: as above; type: cell-based
Procedure: as §1, §2, §3, §4, §5, §6, §7

[5] = system: L-dried matter of NIES-981 on filter; assay: Detection test for DCMU using L-dried matter on a filter; type: cell-based, Cyanobium sp.; conditions: DCMU 1 μM; 5 minutes after exposure; *P<0.01, N=4
Procedure: 25 to 50 mL of a culture solution of NIES-981 was passed through a filter (Whatman GF/F glass fiber filter paper (diameter: 47 mm)) set in a filtration unit, capturing the cells on the filter. After the filtration, 1 mL of a protective medium (Table 6) was immediately added dropwise onto the filter. The filter on which the cells were captured was subjected to low-temperature vacuum drying for 1 to 2 hours using a low-temperature vacuum drying device (manufactured by Forest Technology Systems Ltd., FLEXI-DRY) capable of performing L-drying. Subsequent steps were performed in the same manner as in the preparation of the L-dried sample in the vial described above, thereby obtaining L-dried matter of algae on the filter (FIG. 8).
The L-dried matter obtained on the filter was exposed to seawater or test water containing DCMU at a concentration of 1 μM, and the delayed luminescence was measured 5 minutes after the exposure.

[6] = system: L-dried matter of NIES-35; assay: Quality evaluation of stored L-dried matter with DCMU; type: cell-based, Raphidocelis subcapitata; conditions: DCMU 1 μM, after 15 minutes
Procedure: The L-dried matter stored at 4° C. for 2 weeks was compared with the L-dried matter stored at 37° C. for 2 weeks (accelerated deterioration product). In each case, DCMU was added to the L-dried matter of NIES-35 at the same time as the rehydration, such that the final concentration was 1 μM (DCMU addition group), and the delayed luminescence after 15 minutes was measured. In addition, the delayed luminescence was measured in the control (non-addition group) in which DCMU was not added, following the same procedure.

[7] = system: L-dried matter of NIES-35; assay: Detectable concentration by significant difference test, 15 min exposure of L-dried matter; type: cell-based, Raphidocelis subcapitata; conditions: exposed for 15 minutes
Excerpt: The concentration of HA corresponds to a 100 million-fold dilution of a commercially available stock solution.

[8] = system: same type of biocyanobacteria; assay: 24-hour exposure test on the same type of cyanobacteria; type: cell-based; conditions: different bioassay method
Procedure: In a case where the half-effective concentration (EC50) was calculated, the zinc was 0.05 ppm (w/v) (FIG. 11) and the Cy metal mixed solution was 0.7% (w/v) (FIG. 12). Although it is not possible to simply compare the values because the values were obtained by different bioassay methods, the EC50 value during the zinc exposure was 0.07 ppm in a case where the 24-hour exposure test was performed on the same type of biocyanobacteria, and the EC50 value was similar to this value.

[9] = system: L-dried matter of NIES-981; assay: Estimation of half-effective concentration (EC50) from delayed luminescence dose-response curve; type: cell-based, Cyanobium sp.; conditions: exposed simultaneously with rehydration; delayed luminescence after 15 minutes
Procedure: A dose-response curve of the L-dried matter with respect to a representative metal was created, and a half-effective concentration (EC50) was estimated. For the L-dried matter of NIES-981, zinc at 0 to 1 ppm (w/v) or Cy metal mixed solution at 0 to 10% (w/v) was exposed simultaneously with rehydration. After 15 minutes, the delayed luminescence was measured, and a dose-response curve was created.

[10] = system: L-dried matter of NIES-35; assay: Detection test for ammonia nitrogen using L-dried matter; type: cell-based, Raphidocelis subcapitata; conditions: 60 minutes after addition; T-test, P<0.05, N=3
Procedure: To the L-dried matter of NIES-35 obtained in the cryo vial, a sample containing ammonia nitrogen at a concentration shown in FIG. 10 was added, and the delayed luminescence was measured 60 minutes after the addition.

[11] = Pb^2+ 1 ppm, first value → later value
[12] = Zn^2+ 0.5 ppm, first value → later value

Molecule: [Cu+2] [Cu^2+, Copper]
- comparison with control group (DFI value) ([1]; Cu^2+ 1 ppm): higher
- comparison with control group (DFI value) ([2]; Cu^2+ 1 ppm): lower
- comparison with control group (DFI value) ([3]; Cu^2+ 1 ppm): lower
- comparison with control group (DFI value) ([4]; Cu^2+ 1 ppm): lower

Molecule: CN(C)C(=O)Nc1ccc(Cl)c(Cl)c1 [DCMU, 3-(3,4-dichlorophenyl)-1,1-dimethylurea, reference compound]
- amount of delayed luminescence, DCMU versus seawater [5]: significant difference
- delayed luminescence, DCMU-added group versus non-addition group ([6]; L-dried matter stored at 4° C. for 2 weeks): a difference was observed
- delayed luminescence, DCMU-added group versus non-addition group ([6]; L-dried matter stored at 37° C. for 2 weeks): no significant difference was observed
- detectable concentration (significant difference test) [7]: ≤ 0.1 µM
- detectable concentration (significant difference test) ([7]; conversion of 0.1 μM): approximately 0.02 ppm
- comparison with control group (DFI value) ([1]; DCMU 1 μM): higher
- comparison with control group (DFI value) ([2]; DCMU 1 μM): higher
- comparison with control group (DFI value) ([3]; DCMU 1 μM): higher
- comparison with control group (DFI value) ([4]; DCMU 1 μM, first value → later value): higher

Molecule: NO [HA, Hydroxylamine, reference compound]
- detectable concentration (significant difference test) [7]: ≤ 0.0005 µM
- comparison with control group (DFI value) ([1]; HA 50 μM): lower
- comparison with control group (DFI value) ([2]; HA 50 μM): lower
- comparison with control group (DFI value) ([3]; HA 50 μM): lower
- comparison with control group (DFI value) ([4]; HA 50 μM): lower

Molecule: [Pb+2] [Pb^2+, Lead]
- comparison with control group (DFI value) ([1]; Pb^2+ 1 ppm): higher
- comparison with control group (DFI value) [2, 11]: lower
- comparison with control group (DFI value) ([3]; Pb^2+ 1 ppm): higher
- comparison with control group (DFI value) [4, 11]: lower

Molecule: [Zn+2] [Zn^2+, Zinc]
- EC50 value during the zinc exposure [8]: 0.07 ppm
- half-effective concentration (EC50) [9]: 0.05 ppm (w/v)
- comparison with control group (DFI value) ([1]; Zn^2+ 0.5 ppm): higher
- comparison with control group (DFI value) ([1]; Zn^2+ 1 ppm): higher
- comparison with control group (DFI value) [2, 12]: lower
- comparison with control group (DFI value) ([2]; Zn^2+ 1 ppm): lower
- comparison with control group (DFI value) ([3]; Zn^2+ 0.5 ppm): higher
- comparison with control group (DFI value) ([3]; Zn^2+ 1 ppm): higher
- comparison with control group (DFI value) [4, 12]: lower
- comparison with control group (DFI value) ([4]; Zn^2+ 1 ppm, first value → later value): lower

Molecule: ammonia nitrogen [NH4—N]
- concentration at which a significant difference in the amount of delayed luminescence was confirmed [10]: ≥ 10 mg/L
